# Data: ChEMBL document CHEMBL1138905, “Design, synthesis, and biological evaluation of indole derivatives as novel nociceptin/orphanin FQ (N/OFQ) receptor antagonists” (Bioorg Med Chem Lett, 2006)
# Experiments:
# Nociceptin receptor [1] = biological target: T1, Nociceptin receptor (Homo sapiens, UniProt P41146); test: Displacement of [125I][Tyr14]N/OFQ from ORL1 receptor transfected in CHO cells at 1 uM; assay type: cell-based
# Nociceptin receptor [2] = biological target: T1, Nociceptin receptor; test: Displacement of [125I][Tyr14]N/OFQ from ORL1 receptor transfected in CHO cells; assay type: cell-based
# Nociceptin receptor [3] = biological target: T1, Nociceptin receptor; test: Antagonist activity against ORL1 receptor by GTPgammaS assay; assay type: functional
# T1 sequence (P41146 whole entry): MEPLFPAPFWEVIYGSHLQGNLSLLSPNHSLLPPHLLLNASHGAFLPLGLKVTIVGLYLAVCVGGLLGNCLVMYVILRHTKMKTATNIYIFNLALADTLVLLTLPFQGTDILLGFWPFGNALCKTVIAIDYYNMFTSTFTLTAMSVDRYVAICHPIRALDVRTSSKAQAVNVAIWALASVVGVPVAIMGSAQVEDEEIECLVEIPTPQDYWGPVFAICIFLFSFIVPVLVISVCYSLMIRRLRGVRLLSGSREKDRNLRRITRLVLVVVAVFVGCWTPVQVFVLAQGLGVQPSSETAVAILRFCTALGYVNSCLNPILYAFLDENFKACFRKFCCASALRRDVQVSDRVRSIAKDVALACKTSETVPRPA
SMILES,inhibition (Nociceptin receptor [1]),IC50 (Nociceptin receptor [2]),IC50 (Nociceptin receptor [3])
Cc1ccc(CCc2noc(-c3cc4c(CCN(C)C)cccc4[nH]3)n2)cc1,–,230 nM,–
CC(C)CCc1noc(-c2cc3c(CCN(C)C)cccc3[nH]2)n1,29%,> 1000 nM,–
CN(C)CCc1cccc2[nH]c(-c3nc(Cc4ccc(Cl)cc4)no3)cc12,–,450 nM,–
CN(C)CCc1cccc2[nH]c(-c3nc(CCc4ccc(Cl)cc4)no3)cc12,–,95 nM,632 nM
CN(C)CCc1cccc2[nH]c(-c3nc(CCC4CCCCC4)no3)cc12,–,140 nM,–
CN1CCN(c2cccc3[nH]c(-c4nc(CCc5ccc(Cl)cc5)no4)cc23)CC1,–,120 nM,–
CN(C)Cc1cccc2[nH]c(-c3nc(CCc4ccc(Cl)cc4)no3)cc12,–,62 nM,233 nM
CN(C)CCc1cccc2[nH]c(-c3nc(CCCc4ccc(Cl)cc4)no3)cc12,49%,> 1000 nM,–
COC(C)(C)CCc1noc(-c2cc3c(CCN(C)C)cccc3[nH]2)n1,4%,> 1000 nM,–
CN1CCCC1c1ccc2[nH]c(-c3nc(CCc4ccc(Cl)cc4)no3)cc2c1C1CCCN1C (centres undefined),31%,> 1000 nM,–
CN(C)CCc1cccc2[nH]c(-c3nc(CC4CCCCC4)no3)cc12,–,440 nM,–
CN(C)CCc1cccc2[nH]c(C(=O)NCCc3ccc(Cl)cc3)cc12,18%,> 1000 nM,–
CN(C)CCc1cccc2[nH]c(-c3nc(CCC4CC4)no3)cc12,29%,> 1000 nM,–
CN(C)CCc1cccc2[nH]c(-c3nc(COc4ccc(Cl)cc4)no3)cc12,–,410 nM,–
CN(C)CCc1cccc2[nH]c(-c3nc(CCC4CCCC4)no3)cc12,–,580 nM,–
CCN(C)CCc1cccc2[nH]c(-c3nc(CCc4ccc(Cl)cc4)no3)cc12,–,58 nM,223 nM
CN(C)CCc1cccc2[nH]c(-c3nc(CCCC4CCCCC4)no3)cc12,–,71 nM,294 nM
CCCCc1noc(-c2cc3c(CCN(C)C)cccc3[nH]2)n1,42%,> 1000 nM,–
COc1ccc(CCc2noc(-c3cc4c(CCN(C)C)cccc4[nH]3)n2)cc1,–,560 nM,–
Clc1ccc(CCc2noc(-c3cc4c(CCN5CCCC5)cccc4[nH]3)n2)cc1,–,568 nM,–
CN(C)CCc1cccc2[nH]c(-c3nc(CCc4ccccc4)no3)cc12,46%,> 1000 nM,–

# Other lines, results leading:
inhibition (Nociceptin receptor [1]),IC50 (Nociceptin receptor [2]),IC50 (Nociceptin receptor [3]),SMILES
18%,> 1000 nM,–,CN(C)CCc1cccc2cc(-c3nc(CCc4ccc(Cl)cc4)no3)[nH]c12
3%,> 1000 nM,–,CN(C)CCc1ccc2[nH]c(-c3nc(CCc4ccc(Cl)cc4)no3)cc2c1
11%,> 1000 nM,–,CN(C)CCc1cccc2[nH]c(-c3nc(CCc4ccccn4)no3)cc12
27%,> 1000 nM,–,CN1CCN(c2cc[nH]c3nc(-c4nc(CCc5ccc(Cl)cc5)no4)cc2-3)CC1
44%,> 1000 nM,–,CN(C)CCc1cccc2[nH]c(-c3nc(CCc4ccc(N(C)C)cc4)no3)cc12
39%,> 1000 nM,–,CN(C)CCc1cccc2[nH]c(-c3nnc(CCc4ccc(Cl)cc4)o3)cc12
1.7%,> 1000 nM,–,CN(C)CCc1cccc2[nH]c(-c3nc(CCc4cccnc4)no3)cc12
–,62 nM,899 nM,CN1CCC(c2cccc3[nH]c(-c4nc(CCc5ccc(Cl)cc5)no4)cc23)CC1
22%,> 1000 nM,–,CN(C)CCc1ccc2cc(-c3nc(CCc4ccc(Cl)cc4)no3)[nH]c2c1
–,49 nM,421 nM,CN(C)CCc1cccc2[nH]c(-c3nc(CCc4ccc(C(F)(F)F)cc4)no3)cc12
–,450 nM,–,CN(C)CCc1cccc2[nH]c(-c3nc(CCc4ccc(F)cc4)no3)cc12
0%,> 1000 nM,–,CN(C)CCc1cccc2[nH]c(-c3nc(CCCN4CCCC4)no3)cc12
–,40 nM,199 nM,CN1CCN(c2[nH]ccc3nc(-c4nc(CCc5ccc(Cl)cc5)no4)cc2-3)CC1
37%,> 1000 nM,–,CN(C)CCc1cccc2[nH]c(-c3ncc(CCc4ccc(Cl)cc4)o3)cc12
15%,> 1000 nM,–,Clc1ccc(CCc2noc(-c3cc4c(CCN5CCOCC5)cccc4[nH]3)n2)cc1
14%,> 1000 nM,–,CCCc1noc(-c2cc3c(CCN(C)C)cccc3[nH]2)n1
–,97 nM,450 nM,CN(C)CCOCCc1cccc2[nH]c(-c3nc(CCc4ccc(Cl)cc4)no3)cc12
12%,> 1000 nM,–,CN(C)CCc1cccc2[nH]c(-c3nc(CCc4ccncc4)no3)cc12
–,600 nM,–,CN(C)CCc1cccc2[nH]c(-c3noc(CCc4ccc(Cl)cc4)n3)cc12
11%,> 1000 nM,–,CN(C)CCc1cccc2[nH]c(-c3nc(CCC4CCOCC4)no3)cc12
–,440 nM,–,CN(C)CCc1cccc2[nH]c(-c3nc(CCC4CC5CCC4C5)no3)cc12 (centres undefined)
20%,> 1000 nM,–,CN(C)CCc1cccc2[nH]c(-c3nc(CCC(C)(C)C)no3)cc12
46%,> 1000 nM,–,CN(C)CCc1cccc2[nH]c(-c3nnn(CCc4ccc(Cl)cc4)n3)cc12
41%,> 1000 nM,–,CN(C)CCc1cccc2[nH]c(C(=O)NCCCc3ccc(Cl)cc3)cc12
–,210 nM,–,CN(C)CCCc1cccc2[nH]c(-c3nc(CCc4ccc(Cl)cc4)no3)cc12
